Data as given in patent US11273167B2, “Compositions and methods for modulating ABHD2 activity” (The Regents of the University of California, priority 2015, dated 2022).
Entries after “also recorded” stand apart in the source; their conditions may differ. Read-outs that look alike come from different tables or passages of the source.

How the values were obtained:
human CatSper channel [1] = assay: Whole-cell patch-clamp recording of CatSper currents (ICatSper) from human spermatozoa; assay type: cell-based; details: for effect on P4-dependent activation of CatSper (CatSper P4 sensitivity): human spermatozoa treated with the agent, then P4; for activation of CatSper current (ICatSper): whole-cell patch clamp
Protocol: (§1) All CatSper recordings was performed as described in (Lishko et al., 2013; Lishko et al., 2011). Briefly, gigaohm seal between the patch pipette and human spermatozoon was formed at the cytoplasmic droplet. Spermatozoa were patched either at the cytoplasmic droplet or, if the cytoplasmic droplet was inconspicuous, at the neck region. Seals were formed in high saline (HS) solution containing: 130 mM NaCl, 5 mM KCl, 1 mM MgSO4, 2 mM CaCl2, 5 mM glucose, 1 mM sodium pyruvate, 10 mM lactic acid, 20 mM HEPES, pH 7.4 adjusted with NaOH, 320 mOsm/L. Transition into the whole-cell mode was performed by applying short voltage pulses. Access resistance was 25-40 M. Cells were stimulated every 5 s. Data were sampled at 2-5 kHz and filtered at 1 kHz. Pipettes (11-17 MΩ) for whole-cell patch-clamp recordings of monovalent CatSper currents were filled with (in mM): 130 Cs-methanesulfonate, 70 HEPES, 3 EGTA, 2 EDTA, 0.5 TrisHCl, pH 7.4 adjusted with CsOH. Bath divalent free (DVF) solution for recording of monovalent CatSper currents contained (in mM): 140 Cs-methanesulfonate, 40 HEPES, 1 EDTA, pH 7.4 adjusted with CsOH. HEPES was substituted for MES in the event when acidic extracellular pH was used. HS solution was used to record baseline current while measuring monovalent CatSper currents (Ca^2+ in HS solution inhibits monovalent CatSper currents and causes Ca^2+-dependent inactivation of CatSper channels). Osmolarities of above mentioned solutions were approximately 321 mOsm/L and 335 mOsm/L for bath and pipette solutions, respectively. All electrophysiology experiments were performed at ambient temperature. IcatSper were elicited by voltage ramps from a holding potential of 0 mV. Ramps were applied from −80 mV to +80 mV. Data were analysed with Origin 7.0 and Clampfit 9.2. Statistical data were calculated as the mean±S.E.M., and (n) indicates number of experiments. To determine IcatSper inactivation rate current densities extracted from voltage ramps and acquired at +80 pA were plotted against time. The data were fitted with Boltzmann equation y=1/(1+exp((x−t)/dx)) and mean ti numbers were determined from (n) independent experiments. Statistical significance (t-test) is indicated by (**, p≤0.01 and *, p≤0.05).
(§2) Data were analyzed with Origin 7.0 and Clampfit 9.2. Statistical data were calculated and represented everywhere in text as the mean±S.E.M., and (n) indicates number of experiments. To determine ICatSper inactivation rate current densities extracted from voltage ramps and acquired at +80 pA were plotted against time. The data were fitted with Boltzmann equation y=1/[1+exp((x−τ)/dx)] and mean τ numbers were determined from (n) independent experiments. Hill equation was used to build dose-response curve: y=Vmax*x^n/(k^n+x^n). where n defines Hill slope factor, k defines IC50, and Vmax is close to 100% inhibition. Statistical significance (t test) is indicated by (****P<0.0001, ***P<0.001, **P<0.005 and *P<0.05).

mouse spermatozoa = assay: Acrosome exocytosis assessment in live capacitated mouse sperm; assay type: cell-based; details: 3 μM P4, 3 μM AA
ABHD2 = molecular target: T1, ABHD2 (Homo sapiens, UniProt P08910); assay: P4* UV cross-linking and streptavidin pull-down from human sperm, ABHD2 western blot; assay type: binding; details: 250 nM P4*
T1 construct: endogenous in cells; host or cells: human spermatozoa
T1 sequence (P08910 1-425): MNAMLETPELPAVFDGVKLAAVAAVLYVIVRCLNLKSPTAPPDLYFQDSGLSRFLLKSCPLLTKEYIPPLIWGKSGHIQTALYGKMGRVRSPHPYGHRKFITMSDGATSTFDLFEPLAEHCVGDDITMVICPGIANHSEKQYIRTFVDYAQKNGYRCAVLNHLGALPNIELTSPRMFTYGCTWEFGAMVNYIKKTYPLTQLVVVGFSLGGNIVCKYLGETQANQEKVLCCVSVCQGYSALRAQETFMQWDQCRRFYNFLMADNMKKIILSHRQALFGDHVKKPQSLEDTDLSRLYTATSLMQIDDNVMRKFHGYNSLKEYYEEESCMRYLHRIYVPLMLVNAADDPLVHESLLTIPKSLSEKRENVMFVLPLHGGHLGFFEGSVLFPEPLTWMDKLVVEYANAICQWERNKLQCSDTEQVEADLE
Protocol: After collection, sperm cells were treated with 0.5 units (U) of PI-PLC ([…]; Life Technologies, Carlsbad, Calif.) and incubated at 37° C. for an hour. […] Lysates were added to streptavidin coated magnetic beads (65001; Life Technologies, Carlsbad, Calif.) on ice for another thirty minutes with gentle agitation. Bound proteins were eluted by boiling in Laemmli Sample Buffer in the presence of beta-mercaptoethanol and subjected to SDS-polyacrylamide gel electrophoresis. […] Bands were excised and subjected to in-gel trypsinization after which peptides were extracted and dried for use in proteomic analysis. Protease inhibitors were used throughout the following procedure. Highly motile sperm swim-up fraction was subjected to osmotic shock by a 5 min incubation in 0.5×HS solution, addition of 10 mM EDTA and 10 mM DTT for 10 min, and sonication in a water bath at 25° C. for 5 min. Osmolarity was adjusted by addition of 10×PBS. 5× Laemmli sample buffer was added to a final 1× concentration and the DTT concentration adjusted to 20 mM. An additional 5 min sonication and boiling at 100° C. for 5 min were performed. Total crude cell lysate was loaded onto a 4-20% gradient Tris-HCl CriterionTM SDS-PAGE gel (BioRad). […] Following transfer to PVDF membranes, blots were blocked in 0.1% PBS-Tween20 with 3% IgG free BSA for 15 min and incubated in primary antibodies overnight at 4° C. […]

human CatSper channel [2] = details: shown previously (Lishko et al., 2011); cited from earlier work
human CatSper channel [3] = molecular target: human CatSper channel (Homo sapiens, UniProt Q7RTX7+Q86XQ3+Q8NEC5+Q96P56); assay: Whole-cell patch-clamp recording of CatSper currents (ICatSper) from human spermatozoa; assay type: cell-based
Protocol: as §1, §2

mouse CatSper = molecular target: T2, mouse CatSper (Mus musculus, UniProt A2ARP9+Q80W99+Q8BVN3+Q91ZR5); assay: Whole-cell patch-clamp recording of ICatSper from mouse spermatozoa; assay type: cell-based
T2 construct: Mouse spermatozoa were isolated from cauda epididymis; endogenous in cells; host or cells: mouse cauda epididymal spermatozoa

[4] = human spermatozoa, extracellular application

human CatSper channel (Homo sapiens, UniProt Q7RTX7+Q86XQ3+Q8NEC5+Q96P56), sequence (Q8NEC5 whole entry): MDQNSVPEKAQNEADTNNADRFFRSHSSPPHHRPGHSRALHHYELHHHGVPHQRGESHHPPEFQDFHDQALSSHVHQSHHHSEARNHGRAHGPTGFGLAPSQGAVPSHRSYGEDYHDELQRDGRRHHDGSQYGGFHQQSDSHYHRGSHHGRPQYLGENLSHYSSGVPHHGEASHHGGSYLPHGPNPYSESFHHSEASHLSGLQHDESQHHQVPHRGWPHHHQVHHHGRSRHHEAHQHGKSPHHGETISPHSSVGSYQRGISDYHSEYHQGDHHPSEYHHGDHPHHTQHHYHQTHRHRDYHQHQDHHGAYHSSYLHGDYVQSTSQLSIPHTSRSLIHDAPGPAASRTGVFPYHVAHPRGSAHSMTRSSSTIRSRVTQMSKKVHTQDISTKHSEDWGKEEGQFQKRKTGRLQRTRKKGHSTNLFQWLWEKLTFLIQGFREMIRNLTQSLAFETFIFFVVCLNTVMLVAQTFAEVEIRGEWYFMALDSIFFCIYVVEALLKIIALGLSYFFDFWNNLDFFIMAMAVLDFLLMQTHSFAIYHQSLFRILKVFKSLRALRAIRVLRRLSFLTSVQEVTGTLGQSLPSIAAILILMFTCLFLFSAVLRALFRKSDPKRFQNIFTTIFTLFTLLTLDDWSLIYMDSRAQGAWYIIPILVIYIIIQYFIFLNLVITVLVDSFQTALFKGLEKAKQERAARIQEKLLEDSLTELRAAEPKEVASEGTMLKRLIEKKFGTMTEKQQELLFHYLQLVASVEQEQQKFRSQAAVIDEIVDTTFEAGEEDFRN
human CatSper channel (Homo sapiens, UniProt Q7RTX7+Q86XQ3+Q8NEC5+Q96P56), sequence (Q86XQ3 whole entry): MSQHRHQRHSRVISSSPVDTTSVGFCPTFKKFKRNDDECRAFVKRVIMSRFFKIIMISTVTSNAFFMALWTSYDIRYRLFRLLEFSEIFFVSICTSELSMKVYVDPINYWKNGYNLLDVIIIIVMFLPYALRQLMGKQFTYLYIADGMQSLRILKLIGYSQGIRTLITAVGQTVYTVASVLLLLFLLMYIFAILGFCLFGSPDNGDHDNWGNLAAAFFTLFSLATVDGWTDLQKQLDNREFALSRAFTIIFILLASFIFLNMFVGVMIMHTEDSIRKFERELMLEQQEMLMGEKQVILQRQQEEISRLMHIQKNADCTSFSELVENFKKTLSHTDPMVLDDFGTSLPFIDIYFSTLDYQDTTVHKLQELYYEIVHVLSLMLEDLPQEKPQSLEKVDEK
human CatSper channel (Homo sapiens, UniProt Q7RTX7+Q86XQ3+Q8NEC5+Q96P56), sequence (Q96P56 whole entry): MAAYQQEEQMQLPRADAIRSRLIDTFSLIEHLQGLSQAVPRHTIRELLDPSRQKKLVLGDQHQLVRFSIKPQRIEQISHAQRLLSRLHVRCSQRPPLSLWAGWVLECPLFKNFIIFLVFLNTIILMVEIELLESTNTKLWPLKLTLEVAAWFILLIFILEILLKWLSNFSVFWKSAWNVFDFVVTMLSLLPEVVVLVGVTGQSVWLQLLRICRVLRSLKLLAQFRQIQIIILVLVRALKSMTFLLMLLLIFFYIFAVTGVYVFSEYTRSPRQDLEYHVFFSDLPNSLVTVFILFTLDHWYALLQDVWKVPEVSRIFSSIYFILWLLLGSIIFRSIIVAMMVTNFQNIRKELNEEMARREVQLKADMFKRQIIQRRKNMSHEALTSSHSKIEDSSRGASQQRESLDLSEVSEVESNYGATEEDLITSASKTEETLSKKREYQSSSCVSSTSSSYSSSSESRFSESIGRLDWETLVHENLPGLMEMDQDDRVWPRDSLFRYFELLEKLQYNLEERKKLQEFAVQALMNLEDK
human CatSper channel (Homo sapiens, UniProt Q7RTX7+Q86XQ3+Q8NEC5+Q96P56), sequence (Q7RTX7 whole entry): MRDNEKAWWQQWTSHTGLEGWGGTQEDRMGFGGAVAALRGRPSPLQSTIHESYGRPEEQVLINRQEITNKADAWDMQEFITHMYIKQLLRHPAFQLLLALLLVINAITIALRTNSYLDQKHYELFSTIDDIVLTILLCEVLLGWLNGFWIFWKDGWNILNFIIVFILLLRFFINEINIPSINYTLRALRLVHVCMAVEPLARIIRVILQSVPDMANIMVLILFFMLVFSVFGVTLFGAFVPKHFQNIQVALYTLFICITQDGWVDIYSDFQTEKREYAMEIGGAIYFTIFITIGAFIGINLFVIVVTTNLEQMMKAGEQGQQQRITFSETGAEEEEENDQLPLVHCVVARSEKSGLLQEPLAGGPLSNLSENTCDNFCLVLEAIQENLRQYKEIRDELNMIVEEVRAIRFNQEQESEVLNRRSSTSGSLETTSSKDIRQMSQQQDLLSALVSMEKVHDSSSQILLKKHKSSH

Compound: OCC(O)CO [glycerol]
- effect on P4-dependent activation of CatSper (CatSper P4 sensitivity) (human CatSper channel [1]): did not ablate ICatSper or its regulation by P4
- effect on nascent/basal CatSper current (human CatSper channel [1]; [4]): did not ablate ICatSper

Compound: CCCCC/C=C\C/C=C\C/C=C\C/C=C\CCCC(=O)O [AA, arachidonic acid]
- regulation of CatSper by arachidonic acid (human CatSper channel [1]; ICatSper at +80 mV and −80 mV over time): Dual Regulator of CatSper
- stimulation of mouse acrosome reaction (AR) (mouse spermatozoa): stimulate mouse AR to similar levels

Compound: estrogen
- ABHD2 in P4* pull-down in the presence of competing steroid (ABHD2): ABHD2 presence in pull-down experiments
- interference with P4 activation of CatSper (human CatSper channel [2]): do not interfere with P4 activation of CatSper

Compound: CCCCC[C@H](O)/C=C/[C@H]1[C@H](O)CC(=O)[C@@H]1CCCCCCC(=O)O [PGE1, prostaglandin E1]
- activation of CatSper current (ICatSper) (human CatSper channel [1]; human spermatozoa): stimulated CatSper activation

Compound: CCCCC/C=C\C/C=C\C/C=C\C/C=C\CCCC(=O)NCCO [AEA, anandamide]
- effect on nascent/basal CatSper current (human CatSper channel [1]): does not change nascent CatSper behaviour; also recorded: had no effect

Compound: O=C(Nc1ccccc1)N1CCC(Cc2cnc3ccccc3c2)CC1 [PF750]
- effect on P4-dependent activation of CatSper (CatSper P4 sensitivity) (human CatSper channel [1]): did not change CatSper sensitivity to P4

Compound: lysophosphatidylinositol [lyso-PI]
- effect on nascent/basal CatSper current (human CatSper channel [1]; [4]): Neither lysophosphatidylinositol (lyso-PI) nor lysophosphatidylethanolamine (lyso-PE) affected nascent CatSper current

Compound: CCCCC/C=C\C/C=C\C/C=C\C/C=C\CCCC(=O)OC(CO)CO [2-AG, 2-arachidonoylglycerol]
- effect on nascent/basal CatSper current (human CatSper channel [1]): inhibited ICatSper
- inhibition of ICatSper on intracellular application (human CatSper channel [3]): could not mimic this effect
- percent inhibition of CatSper outward current (human CatSper channel [3]): 92.4±3.5%
- rate of CatSper inactivation, decline in current amplitude τ (human CatSper channel [3]): 1.6 ± 0.3 min
- IC50 (human CatSper channel [3]; read-out: median inhibitory concentration (IC50) of ICatSper, inward currents): 670 nM
- IC50 (human CatSper channel [3]; read-out: median inhibitory concentration (IC50) of ICatSper, outward currents): 350 nM
- inhibition of mouse ICatSper (mouse CatSper; compared with human ICatSper): inhibits mouse ICatSper but with less efficacy than it inhibits human ICatSper
- percent inhibition against the outward current (mouse CatSper; mouse CatSper, n=5): 73.9±4.4%

Compound: CCCCC/C=C\C/C=C\C/C=C\C/C=C\CCCC(=O)OCC(O)CO (centres unmarked) [1-AG, 1-arachidonoylglycerol]
- effect on nascent/basal CatSper current (human CatSper channel [1]): inhibited ICatSper
- percent inhibition of CatSper outward current (human CatSper channel [3]): 85.0±0.5%
- rate of CatSper inactivation, decline in current amplitude τ (human CatSper channel [3]): 2.7 ± 0.2 min

Compound: lysophosphatidylethanolamine [lyso-PE]
- effect on nascent/basal CatSper current (human CatSper channel [1]; [4]): Neither lysophosphatidylinositol (lyso-PI) nor lysophosphatidylethanolamine (lyso-PE) affected nascent CatSper current

Compound: CC(=O)[C@@]1(O)CC[C@H]2[C@@H]3CCC4=CC(=O)CC[C@]4(C)[C@H]3CC[C@@]21C [17-OH—P]
- activation of CatSper current (ICatSper) (human CatSper channel [1]; human spermatozoa): reversibly activated
